From patent US20030013660A1, “Dioxolane analogs for improved inter-cellular delivery” (Shire BioChem Inc., priority 2000, published 2003)
Values joined by “and” are separate entries in the source; they are usually repeats but may differ in a detail not shown here. Equal values may be shown once. Read-outs that look alike come from different tables or passages of the source.

Key:
[1] = tested on: CCRF-CEM; experiment: 3H-TdR (3H-thymidine) incorporation assay at 72 hr; type: cell-based; conditions: 3H-TdR incorporation at 72 hr
Description: (§1) Table of IC50 Values (μM) for Controls
(§2) Exposition of 24 hr to drug, wash, incubated for another 48 hr (total of 72 hr assay)
(§3) (3H-Thymidine Incorporation Assay)

[2] = tested on: CEM/dCK-; experiment: 3H-TdR (3H-thymidine) incorporation assay at 72 hr; type: cell-based; conditions: for IC50: deoxycytidine kinase-deficient CCRF-CEM; for Factor* (Resistance Factor = Ratio of dCK- on Wild-type CCRF-CEM): ratio of IC50 CEM/dCK- to CCRF-CEM, 24 h
Description: as §1, §2, §3

[3] = tested on: MCF-7; experiment: 3H-TdR (3H-thymidine) incorporation assay at 72 hr; type: cell-based, Human; conditions: 3H-TdR incorporation at 72 hr
[4] = tested on: SF-268; experiment: 3H-TdR (3H-thymidine) incorporation assay at 72 hr; type: cell-based, Human; conditions: 3H-TdR incorporation at 72 hr
[5] = tested on: H-460; experiment: 3H-TdR (3H-thymidine) incorporation assay at 72 hr; type: cell-based, Human; conditions: 3H-TdR incorporation at 72 hr
[6] = tested on: CEM/dCK-; experiment: 3H-TdR incorporation at 72 hr (24 hr drug exposure, wash, 48 hr); type: cell-based; conditions: read-out: IC50 in μM (3H-TdR incorporation at 72 hr) CEM/dCK- 24 h; CCRF-CEM deoxycytidine kinase-deficient; 24 h drug exposure, 72 hr assay
Description: as §2, §3

[7] = Homo sapiens, CCRF-CEM, read-out: IC50 CCRF-CEM 24 h, 24 h drug exposure, wash, another 48 hr
[8] = read-out: IC50 CCRF-CEM 24 h, 24 h drug exposure, wash, another 48 hr
[9] = Homo sapiens, CCRF-CEM, read-out: IC50 CEM/dCK- 24 h, 24 h drug exposure, wash, another 48 hr
[10] = Homo sapiens, MCF7, read-out: IC50 MCF-7 24 h, 24 h drug exposure, wash, another 48 hr
[11] = read-out: IC50 MCF-7 24 h, 24 h drug exposure, wash, another 48 hr
[12] = Homo sapiens, SF-268, read-out: IC50 SF-268 24 h, 24 h drug exposure, wash, another 48 hr
[13] = Homo sapiens, NCI-H460, read-out: IC50 H-460 24 h, 24 h drug exposure, wash, another 48 hr
[14] = read-out: IC50 H-460 24 h, 24 h drug exposure, wash, another 48 hr
[15] = read-out: IC50 CEM/dCK- 24 h, 24 h drug exposure, wash, another 48 hr
[16] = read-out: IC50 SF-268 24 h, 24 h drug exposure, wash, another 48 hr

Row | SMILES | IC50 [1, 7] [nM] | IC50 [2, 9] [nM] | IC50 [3, 10] [nM] | IC50 [3, 11] | IC50 [5, 13] [nM] | further results
1 | CCCCC(C)C(=O)Nc1ccn([C@@H]2CO[C@H](CO)O2)c(=O)n1 (stereo in doubt) [Compound 96, 2-METHYL-HEXANOIC ACID [1-(2-HYDROXYMETHYL- [1,3]DIOXOLAN-4-YL)-2- OXO-1,2-DIHYDRO- PYRIMIDIN-4-YL]-AMIDE] | 1800 | > 100000 | 190 | 210 nM |  | IC50 [1, 8]: 1900 nM
2 | CCCCC(CC)C(=O)Nc1ccn([C@@H]2CO[C@H](CO)O2)c(=O)n1 (stereo in doubt) [Compound 99, 2-ETHYL-HEXANOIC ACID [1-(2-HYDROXYMETHYL- [1,3]DIOXOLAN-4-YL)-2- OXO-1,2-DIHYDRO- PYRIMIDIN-4-YL]-AMIDE] | 5000 | > 100000 | 6300 |  |  | Factor* (Resistance Factor = Ratio of dCK- on Wild-type CCRF-CEM) [2]: >20; IC50 [4, 12]: 33000 nM
3 | CC(=O)OC[C@H]1OC[C@@H](n2ccc(N)nc2=O)O1 [Compound 27] |  |  |  |  |  | IC50 ([3]; read-out: IC50 MCF-7 (72 h), 72 h exposure): 7.3 nM; IC50 ([5]; read-out: IC50 H-460 (72 h), 72 h exposure): 5.3 nM; IC50 ([4]; read-out: IC50 SF-268 (72 h), 72 h exposure): 23 nM
4 | CCCCCCOC(=O)Nc1ccn([C@@H]2CO[C@H](CO)O2)c(=O)n1 [Compound 61, [1-(2-HYDROXYMETHYL- [1,3]DIOXOLAN-4-YL)-2- OXO-1,2-DIHYDRO- PYRIMIDIN-4-YL]- CARBAMIC ACID HEXYL ESTER] |  | > 100000 |  |  |  | 
5 | CC(C)(C)OC(=O)N(CCCCCC(=O)OC[C@H]1OC[C@@H](n2ccc(N)nc2=O)O1)Cc1ccccc1 [Compound 66, 6-(Benzyl-tert-butoxycarbonyl-amino)-hexanoic acid 4-(4-amino-2-oxo-2H-pyrimidin-1-yl)-[1,3]dioxolan-2-ylmethyl ester] |  |  | < 0.1 | 0.074 nM |  | 
6 | CCCCC(C)(C)C(=O)OC[C@H]1OC[C@@H](n2ccc(/N=C\N(C)C)nc2=O)O1 [Compound 72, (2S,4S)-2-(2″- DIMETHYLHEXANOICOXYMETH YL)-4-(4′-N,N- DIMETHYLAMINOMETHYLENE- CYTOSIN-1′-YL)-1,3- DIOXOLANE] |  | 23000 | 15 | 17 nM | 18 | IC50 [5, 14]: 27 nM; IC50 [4, 12]: 130 nM; IC50 [4, 16]: 75 nM
7 | CC(C)[C@@H]1CC[C@@H](C)C[C@H]1OC(=O)Nc1ccn([C@@H]2CO[C@H](CO)O2)c(=O)n1 [Compound 94, [1-(2-Hydroxymethyl-[1,3]dioxolan-4-yl)-2-oxo-1,2-dihydro-pyrimidin-4-yl]-carbamic acid 2-isopropyl-5-methyl-cyclohexyl ester] |  | 51000 | 24000 | 13000 nM |  | IC50 [2, 15]: 85000 nM
8 | CC(C)[C@@H]1CC[C@@H](C)C[C@H]1OC(=O)OC[C@H]1OC[C@@H](n2ccc(N)nc2=O)O1 [Compound 95, Carbonic acid 4-(4-amino-2-oxo-2#H!- pyrimidin-1-yl)-[1,3]dioxolan-2-ylmethyl ester 2-isopropyl-5-methyl-cyclohexyl ester] |  |  | 150 | 100 nM | < 0.1 | 
9 | CCCCOC(C)OC[C@H]1OC[C@@H](n2ccc(N)nc2=O)O1 (some centres unmarked) [Compound 97, 4-AMINO-1-[2-(1-BUTOXY- ETHOXYMETHYL)- [1,3]DIOXOLAN-4-YL]-1H- PYRIMIDIN-2-ONE] | 9200 | > 100000 | 5000 | 4000 nM | 22000 | IC50 [1, 8]: 5900 nM
10 | CC(C(=O)OC[C@H]1OC[C@@H](n2ccc(N)nc2=O)O1)c1ccccc1.Cl (some centres unmarked) [Compound 106] |  |  |  |  |  | Factor* (Resistance Factor = Ratio of dCK- on Wild-type CCRF-CEM) [2]: 4,600
11 | CCCCCCN(CCCCCC)C(=O)OC[C@H]1OC[C@@H](n2ccc(N)nc2=O)O1 [Compound 135, DIHEXYLCARBAMIC ACID 4(S)-(4′-AMINO-2′-OXO- 2H-PYRIMIDIN-1′-YL)- [1,3]DIOXOLAN-2(S)- YLMETHYL ESTER] |  |  |  |  |  | IC50 [4, 12]: 250 nM
12 | CC(CCCCN(Cc1ccccc1)C(=O)OC(C)(C)C)C(=O)OC[C@H]1OC[C@@H](n2ccc(/N=C/N(C)C)nc2=O)O1 (some centres unmarked) [Compound 149, 6-(Benzyl-tert-butoxycarbonyl-amino)-methyl-hexanoic acid 4-[4-(dimethylamino-methyleneamino)-2-oxo-2H-pyrimidin-1-yl]-[1,3]dioxolan-2-ylmethyl ester] | < 0.1 | 2000 |  |  |  | IC50 [1, 8]: 0.12 nM; IC50 [2, 15]: > 1800 nM
13 | CN(C)/C=N/c1ccn([C@@H]2CO[C@H](COC(=O)C(C)(C)CCC(=O)N(Cc3ccccc3)C(=O)OC(C)(C)C)O2)c(=O)n1 [Compound 166, 5-(Benzyl-tert-butoxycarbonyl-amino)-2,2-dimethyl-5-oxo-pentanoic acid 4-[4-(dimethylamino-methyleneamino)-2-oxo-2H-pyrimidin-1-yl]-[1,3]dioxolan-2-ylmethyl ester] |  |  |  |  |  | IC50 [6]: 10 µM

Second part, led by results:

Row | IC50 [1, 7] [nM] | IC50 [2, 9] [nM] | IC50 [3, 10] [nM] | IC50 [3, 11] | IC50 [5, 13] [nM] | SMILES | further results
14 |  | > 100000 |  |  | 340 | CCCCNC(=O)OC[C@H]1OC[C@@H](n2ccc(N)nc2=O)O1 [Compound 48, BUTYL-CARBAMIC ACID 4- (4-AMINO-2-OXO-2H- PYRIMIDIN-1-YL)- [1,3]DIOXOLAN-2- YLMETHYL ESTER] | IC50 [5, 14]: 590 nM
15 | 290 | 2900 | 860 | 950 nM | 2000 | CC(C)(C(=O)Nc1ccn([C@@H]2CO[C@H](CO)O2)c(=O)n1)c1ccccc1[N+](=O)[O-] [Compound 60, (2S,4S)--2- HYDROXYMETHYL-4-N-[2″- (2″′-NITROPHENYL)-2″- METHYLPROPIONYL]- CYTOSINE-1′-YL-1,3- DIOXOLANE] | IC50 [1, 8]: 310 nM; IC50 [2, 15]: 1800 nM; IC50 [5, 14]: 3100 nM
16 |  | > 100000 |  |  |  | Cc1cccc(C)c1C(=O)OC[C@H]1OC[C@@H](n2ccc(/N=C\N(C)C)nc2=O)O1 [Compound 87, (2S,4S)-2-(2″,6″- DIMETHYLBENZOYLOXYMETHY L)-4-(4′-N,N- DIMETHYLAMINOMETHLYENE- CYTOSIN-1′-YL)-1,3- DIOXOLANE] | 
17 |  | > 100000 |  |  |  | CCNc1ccn([C@@H]2CO[C@H](COCC)O2)c(=O)n1 [Compound 93, 1-(2′(S)-ETHOXYMETHYL- [1,3]DIOXOLAN-4′(S)- YL)-4-ETHYLAMINO-1H- PYRIMIDIN-2-ONE] | IC50 [4, 12]: > 100000 nM
18 |  | > 100000 | 130 | 150 nM and 220 nM |  | Nc1ccn([C@@H]2CO[C@H](COCc3ccccc3)O2)c(=O)n1 [Compound 98, (2S,4S) 4-AMINO-1-(2- BENZYLOXYMETHYL- [1,3]DIOXOLAN-4-YL)-1H- PYRIMIDIN-2-ONE] | 
19 |  |  |  |  | 30 | CC(C)c1cc(C(C)C)c(C(=O)OC[C@H]2OC[C@@H](n3ccc(N)nc3=O)O2)c(C(C)C)c1 [Compound 100, 2,4,6-Triisopropyl-benzoic acid 4-(4-amino-2-oxo-2H-pyrimidin-1-yl)-[1,3]dioxolan-2-ylmethyl ester] | IC50 [5, 14]: 44 nM
20 | 15000 | > 100000 | 16000 | 15000 nM |  | CC(C)c1ccc(NC(=O)OC[C@H]2OC[C@@H](n3ccc(N)nc3=O)O2)cc1 [Compound 127, (4-ISOPROPYL-PHENYL)- CARBAMIC ACID 4-(4- AMINO-2-OXO-2H- PYRIMIDIN-1-YL)- [1,3]DIOXOLAN-2- YLMETHYL ESTER] | IC50 [1, 8]: 22000 nM
21 | 5000 | 84000 |  |  |  | CCCCCCCCCCNC(=O)OC[C@H]1OC[C@@H](n2ccc(N)nc2=O)O1 [Compound 137, DECYL-CARBAMIC ACID 4- (4-AMINO-2-OXO-2H- PYRIMIDIN-1-YL)- [1,3]DIOXOLAN-2- YLMETHYL ESTER] | IC50 [1, 8]: 6500 nM; IC50 [2, 15]: 53000 nM; IC50 [4, 12]: 18400 nM; IC50 [4, 16]: 16000 nM
22 |  | > 100000 |  |  |  | CC(C)(C(=O)OC[C@H]1OC[C@@H](n2ccc(N)nc2=O)O1)c1ccccc1[N+](=O)[O-] [Compound 155, (2S,4S)-2-[2″-(2″′- NITROPHENYL)-2″- METHYLPROPIONYLOXYMETHY L]-4-CYTOSIN-1′-YL-1,3- DIOXOLANE] | 
23 |  |  | 240 |  | 580 | CC(C)(C)C(=O)OC[C@H]1OC[C@@H](n2ccc(N)nc2=O)O1 [Compound 279, 2,2-DIMETHYL-PROPIONIC ACID 4-(4-AMINO-2-OXO- 2H-PYRIMIDIN-1-YL)- [1,3]DIOXOLAN-2-YL METHYL ESTER] | IC50 ([3]; Homo sapiens, MCF7, read-out: IC50 MCF-7 (72 h), 72 h exposure): 21 nM; IC50 ([5]; Homo sapiens, NCI-H460, read-out: IC50 H-460 (72 h), 72 h exposure): 73 nM; IC50 [4, 12]: 390 nM; IC50 ([4]; Homo sapiens, SF-268, read-out: IC50 SF-268 (72 h), 72 h exposure): 44 nM
